Measured values as given in patent US20210261512A1, “NOVEL COMPOUNDS” (INFLAZOME LIMITED, priority 2018, published 2021).

Tests used:
NLRP3 [1] = biological target: T1, NLRP3 (Homo sapiens, UniProt Q96P20); assay: Human whole blood IL1β release assay; format: cell-based; conditions: LPS 1 μg/ml, nigericin 10 μM, IL-1β AlphaLisa, 10 μM top dose (Example 2: top dose of 30 μM), read-out: HWB IC50
Summary of the method: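 Healthy-donor heparinised human whole blood with 1 μg/ml LPS, compound (8-point half-log dilution, 10 μM top dose unless stated; 0.1% DMSO vehicle) for 3 h at 37 °C, then nigericin 10 μM final for 1 h. Supernatant IL-1β by AlphaLISA; IC50 from 4-parameter variable-slope fit.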

NLRP3 [2] = biological target: T1, NLRP3; assay: THP-1 cells pyroptosis assay; format: cell-based; design: Seed THP-1 cells (25,000 cells/well) containing 1.0 μg/ml LPS; host or cells: THP-1; conditions: LPS 1.0 μg/ml, nigericin 5 μM, resazurin readout, 10 μM top dose (Example 2: top dose of 30 μM)
Summary of the method: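 THP-1 cells (25,000/well) primed with 1 μg/ml LPS in serum-free RPMI, treated with compound (8-point dilution, 10 μM top unless stated; 0.1% DMSO) 3 h at 37°C, then nigericin 5 μM 1 h. Viability read by resazurin (100 μM, 1-2 h) fluorescence; IC50 from 4-parameter fit.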

T1 sequence (Q96P20 whole entry): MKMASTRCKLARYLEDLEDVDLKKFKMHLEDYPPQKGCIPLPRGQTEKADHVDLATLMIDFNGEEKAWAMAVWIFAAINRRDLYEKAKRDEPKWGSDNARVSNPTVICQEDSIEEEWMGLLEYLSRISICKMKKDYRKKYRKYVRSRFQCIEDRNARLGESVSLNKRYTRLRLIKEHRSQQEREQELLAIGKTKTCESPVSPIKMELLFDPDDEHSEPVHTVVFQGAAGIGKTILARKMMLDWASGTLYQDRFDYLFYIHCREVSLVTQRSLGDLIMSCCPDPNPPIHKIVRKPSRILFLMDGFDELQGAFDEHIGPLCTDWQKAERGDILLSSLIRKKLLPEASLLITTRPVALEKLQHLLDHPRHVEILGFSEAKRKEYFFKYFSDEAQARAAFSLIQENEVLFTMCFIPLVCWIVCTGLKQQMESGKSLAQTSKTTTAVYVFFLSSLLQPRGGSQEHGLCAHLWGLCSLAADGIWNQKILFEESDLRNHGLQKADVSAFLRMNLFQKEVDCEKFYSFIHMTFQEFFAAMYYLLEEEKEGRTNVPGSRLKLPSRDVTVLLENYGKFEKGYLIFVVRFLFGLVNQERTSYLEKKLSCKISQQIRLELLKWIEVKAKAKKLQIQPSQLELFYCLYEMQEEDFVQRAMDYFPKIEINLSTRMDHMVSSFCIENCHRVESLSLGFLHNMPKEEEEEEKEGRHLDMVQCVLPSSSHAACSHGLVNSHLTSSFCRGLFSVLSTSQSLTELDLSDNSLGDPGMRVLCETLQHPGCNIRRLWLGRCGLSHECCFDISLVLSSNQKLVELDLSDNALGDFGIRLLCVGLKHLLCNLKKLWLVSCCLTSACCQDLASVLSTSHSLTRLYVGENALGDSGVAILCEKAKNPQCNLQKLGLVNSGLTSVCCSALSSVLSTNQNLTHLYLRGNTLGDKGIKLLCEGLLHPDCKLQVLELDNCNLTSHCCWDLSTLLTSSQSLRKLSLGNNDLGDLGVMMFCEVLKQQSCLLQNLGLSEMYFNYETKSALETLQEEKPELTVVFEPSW

Row | Compound | IC50 (NLRP3 [1]) [nM] | IC50 (NLRP3 [2]) [nM]
1 | CC(C)c1cc(F)cc(C(C)C)c1Nc1nnc(S(=O)(=O)N2CC3(CCN(C)C3)C2)[nH]1 [Example 242, N-(4-fluoro-2,6-diisopropylphenyl)-5-((6-methyl-2,6-diazaspiro[3.4]octan-2-yl)sulfonyl)-4H-1,2,4-triazol-3-amine] | ≤ 500 | ≤ 500
2 | O=S(=O)(c1nnc(Nc2c3c(cc4c2CCC4)CCC3)[nH]1)N1CCC2(CCOC2)CC1 [Example 360, 5-((2-oxa-8-azaspiro[4.5]decan-8-yl)sulfonyl)-N-(1,2,3,5,6,7-hexahydro-s-indacen-4-yl)-4H-1,2,4-triazol-3-amine] | ≤ 5000 | ≤ 500
3 | CN(C)C[C@H]1CCN(S(=O)(=O)c2nnc(Nc3c4c(cc5c3CCC5)CCC4)[nH]2)C1 [Example 148, (R)-5-((3-((dimethylamino)methyl)pyrrolidin-1-yl)sulfonyl)-N-(1,2,3,5,6,7-hexahydro-s-indacen-4-yl)-4H-1,2,4-triazol-3-amine] | ≤ 500 | ≤ 500
4 | CN1CCC2(CC1)CN(S(=O)(=O)c1nnc(Nc3c4c(cc5c3CCC5)CCC4)[nH]1)C2 [Example 275, N-(1,2,3,5,6,7-hexahydro-s-indacen-4-yl)-5-((7-methyl-2,7-diazaspiro[3-5]nonan-2-yl)sulfonyl)-4H-1,2,4-triazol-3-amine] | ≤ 1000 | ≤ 5000
5 | O=S(=O)(NCCN1CCCC1)c1nnc(Nc2c3c(cc4c2CCC4)CCC3)[nH]1 [Example 108, 5-((1,2,3,5,6,7-hexahydro-s-indacen-4-yl)amino)-N-(2-(pyrrolidin-1-yl)ethyl)-4H-1,2,4-triazole-3-sulfonamide] | ≤ 5000 | ≤ 500
6 | O=S(=O)(c1nnc(Nc2c3c(cc4c2CCC4)CCC3)[nH]1)N1CCC(N2CCCC2)C1 (stereo not shown) [Example 104, 5-([1,3′-bipyrrolidin]-1′-ylsulfonyl)-N-(1,2,3,5,6,7-hexahydro-s-indacen-4-yl)-4H-1,2,4-triazol-3-amine] | ≤ 5000 | ≤ 500
7 | [2H]C([2H])([2H])Oc1cc(-c2ccc3c(c2Nc2nnc(S(=O)(=O)N4CC[C@H](C(C)(C)O)C4)[nH]2)CCO3)ccn1 [Example 343, (S)-2-(1-((5-((5-(2-(methoxy-d3)pyridin-4-yl)-2,3-dihydrobenzofuran-4-yl)amino)-4H-1,2,4-triazol-3-yl)sulfonyl)pyrrolidin-3-yl)propan-2-ol] | ≤ 1000 | ≤ 500
8 | O=S(=O)(c1nnc(Nc2c3c(cc4c2CCC4)CCC3)[nH]1)N1CC2(CCN(CCF)C2)C1 [Example 239, 5-((6-(2-fluoroethyl)-2,6-diazaspiro[3.4]octan-2-yl)sulfonyl)-N-(1,2,3,5,6,7-hexahydro-s-indacen-4-yl)-4H-1,2,4-triazol-3-amine] | ≤ 5000 | ≤ 1000
9 | COc1cc(-c2ccc3c(c2Nc2nnc(S(=O)(=O)N4CCC5(CCCN5C)CC4)[nH]2)CCO3)ccn1 [Example 211, N-(5-(2-methoxypyridin-4-yl)-2,3-dihydrobenzofuran-4-yl)-5-((1-methyl-1,8-diazaspiro[4.5]decan-8-yl)sulfonyl)-4H-1,2,4-triazol-3-amine] | ≤ 5000 | ≤ 500
10 | CC(C)(O)[C@@H]1CCN(S(=O)(=O)c2nnc(Nc3c4c(cc5c3CCC5)CCC4)[nH]2)C1 [Example 330, (R)-2-(1-((5-((1,2,3,5,6,7-hexahydro-s-indacen-4-yl)amino)-4H-1,2,4-triazol-3-yl)sulfonyl)pyrrolidin-3-yl)propan-2-ol] | ≤ 10000 | ≤ 1000
11 | CN(C)C1CCN(S(=O)(=O)c2nnc(Nc3c(-c4ccnc(OC(F)F)c4)ccc4c3CCO4)[nH]2)CC1 [Example 225, 1-((5-((5-(2-(difluoromethoxy)pyridin-4-yl)-2,3-dihydrobenzofuran-4-yl)amino)-4H-1,2,4-triazol-3-yl)sulfonyl)-N,N-dimethylpiperidin-4-amine] | ≤ 1000 | ≤ 500
12 | O=S(=O)(c1nnc(Nc2c3c(cc4c2CCC4)CCC3)[nH]1)N1CCC2(CCN2C2CC2)CC1 [Example 254, 5-((1-cyclopropyl-1,7-diazaspiro[3.5]nonan-7-yl)sulfonyl)-N-(1,2,3,5,6,7-hexahydro-s-indacen-4-yl)-4H-1,2,4-triazol-3-amine] | ≤ 5000 | ≤ 500
13 | CCN(CC)C[C@@H]1CCN(S(=O)(=O)c2nnc(Nc3c4c(cc5c3CCC5)CCC4)[nH]2)C1 [Example 143, (S)-5-((3-((diethylamino)methyl)pyrrolidin-1-yl)sulfonyl)-N-(1,2,3,5,6,7-hexahydro-s-indacen-4-yl)-4H-1,2,4-triazol-3-amine] | ≤ 500 | ≤ 500

Second part, the compound after the results:

Row | IC50 (NLRP3 [1]) [nM] | IC50 (NLRP3 [2]) [nM] | Compound
14 | ≤ 5000 | ≤ 5000 | CN(C)CC1CCCN(S(=O)(=O)c2nnc(Nc3c4c(cc5c3CCC5)CCC4)[nH]2)C1 (stereo not shown) [Example 305, 5-((3-((dimethylamino)methyl)piperidin-1-yl)sulfonyl)-N-(1,2,3,5,6,7-hexahydro-s-indacen-4-yl)-4H-1,2,4-triazol-3-amine]
15 | ≤ 10000 | ≤ 1000 | O=S(=O)(c1nnc(Nc2c3c(cc4c2CCC4)CCC3)[nH]1)N1CC[C@H](C2(O)CC2)C1 [Example 345, (S)-1-(1-((5-((1,2,3,5,6,7-hexahydro-s-indacen-4-yl)amino)-4H-1,2,4-triazol-3-yl)sulfonyl)pyrrolidin-3-yl)cyclopropanol]
16 | ≤ 5000 | ≤ 1000 | O=S(=O)(NCCN1CCC1)c1nnc(Nc2c3c(cc4c2CCC4)CCC3)[nH]1 [Example 89, N-(2-(azetidin-1-yl)ethyl)-5-((1,2,3,5,6,7-hexahydro-s-indacen-4-yl)amino)-4H-1,2,4-triazole-3-sulfonamide]
17 | ≤ 5000 | ≤ 500 | COc1cc(-c2cc(F)cc(C(C)C)c2Nc2nnc(S(=O)(=O)N3CCC4(CCN4C)CC3)[nH]2)ccn1 [Example 249, N-(4-fluoro-2-isopropyl-6-(2-methoxypyridin-4-yl)phenyl)-5-((1-methyl-1,7-diazaspiro[3.5]nonan-7-yl)sulfonyl)-4H-1,2,4-triazol-3-amine]
18 | ≤ 500 | ≤ 500 | CC(C)c1cnn(-c2ccncc2)c1Nc1nnc(S(=O)(=O)N2CCC(N(C)C)CC2)[nH]1 [Example 197, 1-((5-((4-isopropyl-1-(pyridin-4-yl)-1H-pyrazol-5-yl)amino)-4H-1,2,4-triazol-3-yl)sulfonyl)-N,N-dimethylpiperidin-4-amine]
19 | ≤ 500 | ≤ 500 | CN1CCCC12CCN(S(=O)(=O)c1nnc(Nc3c(-c4ccnc(OC(F)F)c4)ccc4c3CCC4)[nH]1)CC2 [Example 201, N-(5-(2-(difluoromethoxy)pyridin-4-yl)-2,3-dihydro-1H-inden-4-yl)-5-((1-methyl-1,8-diazaspiro[4.5]decan-8-yl)sulfonyl)-4H-1,2,4-triazol-3-amine]
20 | ≤ 1000 | ≤ 500 | CN(C)CC1CCN(S(=O)(=O)c2nnc(Nc3c4c(cc5c3CCC5)CCC4)[nH]2)CC1 [Example 304, 5-((4-((dimethylamino)methyl)piperidin-1-yl)sulfonyl)-N-(1,2,3,5,6,7-hexahydro-s-indacen-4-yl)-4H-1,2,4-triazol-3-amine]
21 | ≤ 5000 | ≤ 5000 | CN1CC2(CC1=O)CN(S(=O)(=O)c1nnc(Nc3c4c(cc5c3CCC5)CCC4)[nH]1)C2 [Example 331, 2-((5-((1,2,3,5,6,7-hexahydro-s-indacen-4-yl)amino)-4H-1,2,4-triazol-3-yl)sulfonyl)-6-methyl-2,6-diazaspiro[3.4]octan-7-one]
22 | ≤ 5000 | ≤ 500 | COc1cc(-c2cc(F)cc(C(C)C)c2Nc2nnc(S(=O)(=O)N3CCC4(CCCN4C)CC3)[nH]2)ccn1 [Example 260, N-(4-fluoro-2-isopropyl-6-(2-methoxypyridin-4-yl)phenyl)-5-((1-methyl-1,8-diazaspiro[4.5]decan-8-yl)sulfonyl)-4H-1,2,4-triazol-3-amine]
23 | ≤ 5000 | ≤ 5000 | CN1CC2CN(S(=O)(=O)c3nnc(Nc4c5c(cc6c4CCC6)CCC5)[nH]3)CC2C1 (stereo not shown) [Example 138, N-(1,2,3,5,6,7-hexahydro-s-indacen-4-yl)-5-((5-methylhexahydropyrrolo[3,4-c]pyrrol-2 (1H)-yl)sulfonyl)-4H-1,2,4-triazol-3-amine]
24 | ≤ 10000 | ≤ 1000 | CN(C)C(=O)C1CCN(S(=O)(=O)c2nnc(Nc3c4c(cc5c3CCC5)CCC4)[nH]2)C1 (stereo not shown) [Example 139, 1-((5-((1,2,3,5,6,7-hexahydro-s-indacen-4-yl)amino)-4H-1,2,4-triazol-3-yl)sulfonyl)-N,N-dimethylpyrrolidine-3-carboxamide]
25 | ≤ 10000 | ≤ 500 | CC(O)Cn1ccc(S(=O)(=O)c2nnc(Nc3c4c(cc5c3CCC5)CCC4)[nH]2)n1 (stereo not shown) [Example 352, 1-(3-((5-((1,2,3,5,6,7-hexahydro-s-indacen-4-yl)amino)-4H-1,2,4-triazol-3-yl)sulfonyl)-1H-pyrazol-1-yl)propan-2-ol]
26 | ≤ 10000 | ≤ 5000 | CN1CCCCC1CNS(=O)(=O)c1nnc(Nc2c3c(cc4c2CCC4)CCC3)[nH]1 (stereo not shown) [Example 141, 5-((1,2,3,5,6,7-hexahydro-s-indacen-4-yl)amino)-N-((1-methylpiperidin-2-yl)methyl)-4H-1,2,4-triazole-3-sulfonamide]
